# From US4977144A, “Imidazo[4,5-b]pyridine derivatives as cardiovascular agents” (Ciba-Geigy Corporation, priority 1989, dated 1990)
# How the values were obtained:
# [1] = target: T1, adenosine-2 (A-2) receptor (Rattus norvegicus, UniProt P30543); test: adenosine-2 (A-2) receptor binding: inhibition of specific binding of 3H-NECA in rat striatal membrane preparations; design: species or system male Sprague-Dawley rats; conditions: for IC50: displacement of 4 nM 3H-NECA in the presence of 50 nM cyclopentyladenosine, rat striatal membranes, read-out: IC50 in the in vitro adenosine-2 receptor binding assay
# T1 construct: striatal membrane preparations from corpus striatum of male Sprague-Dawley rats; from tissue; host or cells: corpus striatum of male Sprague-Dawley rats (membrane preparation)
# T1 sequence (P30543 whole entry): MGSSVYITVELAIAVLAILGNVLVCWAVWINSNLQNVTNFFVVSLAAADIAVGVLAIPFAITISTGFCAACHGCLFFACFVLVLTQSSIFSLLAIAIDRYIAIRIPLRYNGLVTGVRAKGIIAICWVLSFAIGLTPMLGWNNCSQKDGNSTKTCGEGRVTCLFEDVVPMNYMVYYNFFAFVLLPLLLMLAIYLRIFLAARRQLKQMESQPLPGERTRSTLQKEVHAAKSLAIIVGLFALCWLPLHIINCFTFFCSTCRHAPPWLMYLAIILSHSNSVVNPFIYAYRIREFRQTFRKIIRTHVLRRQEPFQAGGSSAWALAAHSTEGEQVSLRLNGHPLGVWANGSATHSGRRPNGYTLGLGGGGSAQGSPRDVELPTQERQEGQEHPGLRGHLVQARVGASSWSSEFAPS
# [2] = test system: spontaneous hypertensive rat; test: blood pressure lowering effect in the spontaneous hypertensive rat on oral administration; type: in vivo; conditions: at a dose of about 10 mg/Kg p.o.
# Procedure: Indicative of in vivo adenosine receptor agonist activity, the hypotensive activity of the compounds of the invention can be measured in normotensive or spontaneous hypertensive rats on intravenous or oral administration.
# The blood pressure lowering effect in the spontaneous hypertensive rat is determined on oral administration as known in the art.
greater potency at the A-2 receptor than at the A-1 receptor ([1]; A-2 binding versus A-1 binding),IC50 [1] [nM],Structure (SMILES),lowers blood pressure in the spontaneous hypertensive rat model [2]
more than 100 fold,~100,"Nc1cc(NCCC2CCCCC2)nc2c1ncn2[C@@H]1O[C@H](CO)[C@@H](O)[C@H]1O [Example 1, 7-amino-3-β-D-ribofuranosyl-N-(2-cyclohexylethyl)-3H-imidazo[4,5-b] pyridin-5-amine]",effectively lowers blood pressure
–,~70,COc1ccc(CCNc2cc(N)c3ncn([C@@H]4O[C@H](CO)[C@@H](O)[C@H]4O)c3n2)cc1 [Example 15(1)],–
